Results: patent publication US10703764B2, “Benzopiperazine compositions as BET bromodomain inhibitors” (FORMA Therapeutics, Inc., priority 2013, dated 2020)

Assays:
BRD4 BD1 = target: T1, BRD4 BD1 (Homo sapiens, UniProt O60885); assay: AlphaScreen binding assay, BRD4 Bromodomain 1
T1 construct: made in house
How it was run: (§1)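 Compound dilution series were mixed with His-tagged BRD4 bromodomain and biotinylated tetra-acetylated H4 (1-21) peptide at pH 7.3 (BD1 and peptide at 50 nM, BD2 and peptide at 100 nM). Donor and acceptor beads were then added, and plates were equilibrated at least 1 h before reading. IC50 values were fitted with a four-parameter logistic model.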

MV4-11 cells = assay: Oncology cell growth assay (3-day proliferation, CellTiter-Glo); format: cell-based; conditions: Homo sapiens, MV4-11, 72 h, AML cell line MV4-11, 72 hours, compounds grouped by IC50 range, read-out: MV4-11 IC50 (inhibition of proliferation, gIC50)
How it was run: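 MV4-11 AML cells (RPMI 1640, 10% FBS) plated at 3000 cells/well and exposed 72 h to compound at final 10 to 0.0045 μM (3-fold series). Viability read by CellTiter-Glo luminescence; gIC50 from four-parameter logistic fit between DMSO control and no-cell background.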

BRD4 BD2 = target: T2, BRD4 BD2 (Homo sapiens, UniProt O60885); assay: AlphaScreen binding assay, BRD4 Bromodomain 2
T2 construct: made in house
How it was run: as §1

IC50 (BRD4 BD1) | IC50 (MV4-11 cells) | IC50 (BRD4 BD2) | Structure (SMILES)
< 100 nM | < 100 nM | < 50 nM | CC(=O)N1c2ccc(-c3cnn(C4CCOCC4)c3)cc2N(C(=O)OC2CCCCC2)C[C@@H]1C [Example I-1301]
100 to 1000 nM | 100 to 500 nM | 50 to 500 nM | CC(=O)N1c2ccc(-c3cnn(C4CC4)c3)cc2N(C(=O)Oc2ccccc2C)C[C@@H]1C [Example I-509]
100 to 1000 nM | 100 to 500 nM | 50 to 500 nM | CC(=O)N1c2ccc(-c3cnn(CC4COC4)c3)cc2N(C(=O)OC(C)C)C[C@@H]1C [Example I-642]
100 to 1000 nM | 100 to 500 nM | 50 to 500 nM | CC(=O)N1c2ccc(-c3cnn(C[C@H]4CCNC4)c3)cc2N(C(=O)OC(C)C)C[C@@H]1C [Example I-688]
100 to 1000 nM | 100 to 500 nM | 50 to 500 nM | CC(=O)N1c2ccc(-c3cnn(CC(C)C)c3)cc2N(C(=O)C2CC2)CC1C (stereo not drawn) [Example I-670]
100 to 1000 nM | 100 to 500 nM | 50 to 500 nM | CC(=O)N1c2ccc(-c3cnn(C4CC4)c3)cc2N(C(=O)OCCC(F)(F)F)C[C@@H]1C [Example I-78, (S)-3,3,3-trifluoropropyl 4-acetyl-7-(1-cyclopropyl-1H-pyrazol-4-yl)-3-methyl-3,4-dihydroquinoxaline-1(2H)-carboxylate]
100 to 1000 nM | 100 to 500 nM | 50 to 500 nM | CC(=O)N1c2ccc(-c3cnn(CC4CCS(=O)(=O)CC4)c3)cc2N(C(=O)OC(C)C)C[C@@H]1C [Example I-595]
100 to 1000 nM | > 500 nM | 50 to 500 nM | CC(=O)N1c2ccc(-c3cnn(C4CS(=O)(=O)C4)c3)cc2N(C(=O)OC(C)C)C[C@@H]1C [Example I-1306]
100 to 1000 nM | < 100 nM | 50 to 500 nM | COc1ccc(F)c(OC(=O)N2C[C@H](C)N(C(C)=O)c3ccc(-c4cnn(C5CC5)c4)cc32)c1 [Example I-524]
100 to 1000 nM | 100 to 500 nM | 50 to 500 nM | CC(=O)N1c2ccc(-c3cnn(C4CCNCC4)c3)cc2N(C(=O)OC(C)C)C[C@@H]1C [Example I-353]
< 100 nM | 100 to 500 nM | < 50 nM | CC(=O)N1c2ccc(-c3cnn(C4COC4)c3)cc2N(C(=O)OC2CC(F)(F)C2)C[C@@H]1C [Example I-65, (S)-3,3-difluorocyclobutyl 4-acetyl-3-methyl-7-(1-(oxetan-3-yl)-1H-pyrazol-4-yl)-3,4-dihydroquinoxaline-1(2H)-carboxylate]
100 to 1000 nM | 100 to 500 nM | 50 to 500 nM | CC(C)OC(=O)N1C[C@H](C)N(C(=O)C2CC2)c2ccc(-c3cnn(C4CCOCC4)c3)cc21 [Example I-313]
100 to 1000 nM | 100 to 500 nM | 50 to 500 nM | CC(=O)N1c2ccc(-c3cnn(C4CC4)c3)cc2N(C(=O)Oc2cc(C)ccc2F)C[C@@H]1C [Example I-1198]
< 100 nM | 100 to 500 nM | < 50 nM | CC(=O)N1c2ccc(-c3cnn(C4CC4)c3)cc2N(C(=O)Oc2cccnc2)C[C@@H]1C [Example I-510]
< 100 nM | 100 to 500 nM | < 50 nM | CC(=O)N1c2ccc(-c3cnn(C4CC4)c3)cc2N(C(=O)Oc2ccc(C)nc2)C[C@@H]1C [Example I-511]

More lines, now with the values behind:

Structure (SMILES) | IC50 (BRD4 BD1) | IC50 (MV4-11 cells) | IC50 (BRD4 BD2)
CC(=O)N1c2ccc(-c3cccc(NS(=O)(=O)N(C)C)c3)cc2N(C(=O)C2CC2)C[C@@H]1C [Example I-1143] | 1000 to 10000 nM | 100 to 500 nM | 50 to 500 nM
CC(=O)N1c2ccc(-c3cnn(C4CC4)c3)cc2N(c2nn(C)c3ccccc23)C[C@@H]1C [Example I-52, (S)-1-(6-(1-cyclopropyl-1H-pyrazol-4-yl)-2-methyl-4-(1-methyl-1H-indazol-3-yl)-3,4-dihydroquinoxalin-1(2H)-yl)ethanone] | 100 to 1000 nM | < 100 nM | < 50 nM
CC(=O)N1c2ccc(-c3ccc(C(=O)N4CCSCC4)cc3)cc2N(C(=O)OC(C)C)C[C@@H]1C [Example I-538] | 100 to 1000 nM | 100 to 500 nM | 50 to 500 nM
CC(=O)N1c2cc(NS(C)(=O)=O)c(-c3cnn(C4CC4)c3)cc2N(C(=O)OC(C)C)C[C@@H]1C [Example I-213, Isopropyl (S)-4-acetyl-7-(1-cyclopropyl-1H-pyrazol-4-yl)-3-methyl-6-(methylsulfonamido)-3,4-dihydroquinoxaline-1(2H)-carboxylate] | > 10000 nM | > 500 nM | > 500 nM
CC(=O)N1c2ccc(-c3ccc(S(=O)(=O)C4CC4)cc3)cc2N(C(=O)c2ccco2)C[C@@H]1C [Example I-291] | 100 to 1000 nM | 100 to 500 nM | < 50 nM
CC(=O)N1c2ccc(-c3ccc4c(c3)CCCN4S(C)(=O)=O)cc2N(C(=O)OC(C)C)C[C@@H]1C [Example I-1160] | 100 to 1000 nM | 100 to 500 nM | 50 to 500 nM
CC(=O)N1c2ccc(-c3ccc(C(=O)N4CCNCC4)cc3)cc2N(C(=O)c2ccco2)C[C@@H]1C [Example I-422] | 100 to 1000 nM | 100 to 500 nM | < 50 nM
CC(=O)N1c2ccc(-c3cnn(CCC#N)c3)cc2N(C(=O)Oc2ccccn2)C[C@@H]1C [Example I-1326] | 100 to 1000 nM | 100 to 500 nM | 50 to 500 nM
CC(=O)N1c2ccc(-c3ccc(N4CCN(C)CC4)cc3)cc2N(C(=O)c2ccco2)C[C@@H]1C [Example I-874] | 100 to 1000 nM | 100 to 500 nM | < 50 nM
CC(=O)N1c2ccc(-c3ccc(S(=O)(=O)N(C)C)cc3)cc2N(C(=O)C2CCC2)C[C@@H]1C [Example I-1124] | 1000 to 10000 nM | 100 to 500 nM | 50 to 500 nM
CC(=O)N1c2ccc(-c3cnn(C4CC4)c3)cc2N(c2nn(C)c3ccc(F)cc23)C[C@@H]1C [Example I-55, (S)-1-(6-(1-cyclopropyl-1H-pyrazol-4-yl)-4-(5-fluoro-1-methyl-1H-indazol-3-yl)-2-methyl-3,4-dihydroquinoxalin-1(2H)-yl)ethanone] | 100 to 1000 nM | 100 to 500 nM | < 50 nM
CC(=O)N1c2ccc(-c3ccc(F)c(S(C)(=O)=O)c3)cc2N(C(=O)C2CCC2)C[C@@H]1C [Example I-1099] | 1000 to 10000 nM | > 500 nM | 50 to 500 nM
CC(=O)N1c2ccc(-c3ccc(C(=O)N4C[C@H]5CCN(C)[C@H]5C4)cc3)cc2N(C(=O)OC(C)C)C[C@@H]1C [Example I-555] | 100 to 1000 nM | < 100 nM | 50 to 500 nM
CC(=O)N1c2ccc(-c3cnn(C4CC4)c3)cc2N(c2nn(C)c3ccncc23)C[C@@H]1C [Example I-186, 1-[(2S)-6-(1-cyclopropyl-1H-pyrazol-4-yl)-2-methyl-4-{1-methyl-1H-pyrazolo[4,3-c]pyridin-3-yl}-1,2,3,4-tetrahydroquinoxalin-1-yl]ethan-1-one] | 100 to 1000 nM | 100 to 500 nM | 50 to 500 nM
CCCS(=O)(=O)c1ccc(-c2ccc3c(c2)N(C(=O)OC2CCOCC2)C[C@H](C)N3C(C)=O)cc1 [Example I-1236] | 100 to 1000 nM | 100 to 500 nM | 50 to 500 nM
CC(=O)N1c2ccc(-c3cnn(C4CCNCC4)c3)cc2N(c2nn(C)c3cnccc23)C[C@@H]1C [Example I-182, (S)-1-(2-methyl-4-(1-methyl-1H-pyrazolo[3,4-c]pyridin-3-yl)-6-(1-(piperidin-4-yl)-1H-pyrazol-4-yl)-3,4-dihydroquinoxalin-1(2H)-yl)ethanone] | 100 to 1000 nM | 100 to 500 nM | < 50 nM
CC(=O)N1c2ccc(-c3ccc(N4CCOCC4)cc3)cc2N(C(=O)C2CCC2)C[C@@H]1C [Example I-1059] | 1000 to 10000 nM | 100 to 500 nM | 50 to 500 nM
CC(=O)N1c2ccc(-c3cccc(S(=O)(=O)C4CC4)c3)cc2N(C(=O)OC2CCOCC2)C[C@@H]1C [Example I-1244] | 100 to 1000 nM | 100 to 500 nM | 50 to 500 nM
CCS(=O)(=O)Nc1ccc(-c2ccc3c(c2)N(C(=O)OC2CCCCC2)C[C@H](C)N3C(C)=O)cc1 [Example I-1269] | 100 to 1000 nM | < 100 nM | 50 to 500 nM
CC(=O)N1c2ccc(-c3cnn(CCO)c3)cc2N(C(=O)Oc2ccc(F)cc2)C[C@@H]1C [Example I-1015] | 100 to 1000 nM | 100 to 500 nM | 50 to 500 nM
CC(C)OC(=O)N1C[C@H](C)N(C(=O)C2CC2)c2ccc(-c3cnn(C(C)(C)C)c3)cc21 [Example I-331] | 100 to 1000 nM | > 500 nM | > 500 nM
CC(=O)N1c2ccc(-c3ccc(S(=O)(=O)NCCO)cc3)cc2N(C(=O)c2ccco2)C[C@@H]1C [Example I-293] | 1000 to 10000 nM | 100 to 500 nM | < 50 nM
CC(=O)N1c2ccc(-c3ccnc(N4CCOCC4)c3)cc2N(C(=O)c2ccco2)C[C@@H]1C [Example I-862] | 100 to 1000 nM | > 500 nM | 50 to 500 nM
CC(=O)N1c2ccc(-c3ccc(-c4ccccc4)cc3)cc2N(C(=O)c2ccco2)C[C@@H]1C [Example I-798] | 1000 to 10000 nM | > 500 nM | 50 to 500 nM
CC(=O)N1c2ccc(-c3cnn(CCC#N)c3)cc2N(C(=O)Oc2ccc(F)cc2F)C[C@@H]1C [Example I-1012] | 100 to 1000 nM | 100 to 500 nM | < 50 nM
CC(=O)N1c2ccc(-c3ccc(S(=O)(=O)NC4CC4)cc3)cc2N(C(=O)c2ccco2)C[C@@H]1C [Example I-268] | 100 to 1000 nM | < 100 nM | < 50 nM
CC(=O)N1c2ccc(-c3ccc(-c4ncc[nH]4)cc3)cc2N(C(=O)c2ccco2)CC1C (stereo not drawn) [Example I-429] | 100 to 1000 nM | 100 to 500 nM | < 50 nM
